Laboratory results as given in ChEMBL document CHEMBL3880390, “Agents for preventing and treating disorders involving modulation of the RYR receptors” (2014).

Tests used:
hERG (KCNH2) [1] = biological target: T1, hERG (KCNH2) (Homo sapiens, UniProt Q12809); experiment: Inhibition of human ERG expressed in HEK293 cells at 0.01 uM after 5 mins at -80 mV holding potential by patch clamp assay; format: cell-based; details: HEK293 cells expressing human ERG
hERG (KCNH2) [2] = biological target: T1, hERG (KCNH2); experiment: Inhibition of human ERG expressed in HEK293 cells at 0.1 uM after 5 mins at -80 mV holding potential by patch clamp assay; format: cell-based; details: HEK293 cells expressing human ERG
hERG (KCNH2) [3] = biological target: T1, hERG (KCNH2); experiment: Inhibition of human ERG expressed in HEK293 cells at 1 uM after 5 mins at -80 mV holding potential by patch clamp assay; format: cell-based; details: HEK293 cells expressing human ERG
hERG (KCNH2) [4] = biological target: T1, hERG (KCNH2); experiment: Inhibition of human ERG expressed in HEK293 cells at 10 uM after 5 mins at -80 mV holding potential by patch clamp assay; format: cell-based; details: HEK293 cells expressing human ERG
Ryanodine receptor 2 = Ryanodine receptor 2 (Homo sapiens, UniProt Q92736); experiment: Induction of FKBP12.6 re-binding to PKA-phosphorylated-RyR2 (unknown origin) after 30 mins in presence of [35S]-FKBP12.6 by liquid scintillation counting
[5] = Cardiotoxicity in haploinsufficient FKBP12.6 expressing mouse assessed as reduction in non-sustained ventricular tachycardia at 0.2 to 1 uM under testing exercise followed by epinephrine injection relative to control; format: toxicity; details: in vivo

T1 sequence (Q12809 whole entry): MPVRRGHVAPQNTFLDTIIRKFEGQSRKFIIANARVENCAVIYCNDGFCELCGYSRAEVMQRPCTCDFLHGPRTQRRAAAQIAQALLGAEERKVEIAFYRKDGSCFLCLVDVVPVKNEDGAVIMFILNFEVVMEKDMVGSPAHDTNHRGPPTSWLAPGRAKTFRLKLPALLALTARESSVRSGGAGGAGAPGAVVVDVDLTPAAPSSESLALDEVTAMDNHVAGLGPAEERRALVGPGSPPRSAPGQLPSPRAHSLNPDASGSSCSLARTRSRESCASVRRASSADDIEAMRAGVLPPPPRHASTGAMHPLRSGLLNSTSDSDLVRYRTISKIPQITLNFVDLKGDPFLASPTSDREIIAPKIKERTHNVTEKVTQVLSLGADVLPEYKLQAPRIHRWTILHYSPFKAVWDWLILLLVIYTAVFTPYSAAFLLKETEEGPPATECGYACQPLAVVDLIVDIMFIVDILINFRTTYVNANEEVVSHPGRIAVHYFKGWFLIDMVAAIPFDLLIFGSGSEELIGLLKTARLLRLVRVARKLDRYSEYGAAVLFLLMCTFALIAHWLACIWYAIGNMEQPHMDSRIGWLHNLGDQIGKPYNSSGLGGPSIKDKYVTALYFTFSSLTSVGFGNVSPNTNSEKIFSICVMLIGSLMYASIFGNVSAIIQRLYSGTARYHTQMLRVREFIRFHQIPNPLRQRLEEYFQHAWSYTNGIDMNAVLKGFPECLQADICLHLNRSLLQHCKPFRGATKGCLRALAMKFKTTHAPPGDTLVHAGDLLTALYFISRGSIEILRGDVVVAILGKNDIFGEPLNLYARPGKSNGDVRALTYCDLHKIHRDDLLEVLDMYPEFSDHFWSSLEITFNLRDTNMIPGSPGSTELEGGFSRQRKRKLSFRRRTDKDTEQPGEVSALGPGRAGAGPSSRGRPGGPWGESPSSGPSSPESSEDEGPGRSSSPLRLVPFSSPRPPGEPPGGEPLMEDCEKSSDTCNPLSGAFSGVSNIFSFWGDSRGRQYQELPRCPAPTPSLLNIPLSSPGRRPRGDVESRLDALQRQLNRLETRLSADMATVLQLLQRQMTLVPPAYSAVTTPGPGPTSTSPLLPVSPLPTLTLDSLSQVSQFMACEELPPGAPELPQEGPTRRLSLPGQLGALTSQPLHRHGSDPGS

SMILES | inhibition at 5 min, 0.01 µM (hERG (KCNH2) [1]) | inhibition at 5 min, 0.1 µM (hERG (KCNH2) [2]) | inhibition at 5 min, 1 µM (hERG (KCNH2) [3]) | inhibition at 5 min, 10 µM (hERG (KCNH2) [4]) | EC50 (Ryanodine receptor 2) | Activity [5]
COc1ccc2c(c1)CN(C(=O)N1CCCCC1)CCS2 | 1.8% | 3.7% | 6.1% | 24.2% |  | 
COc1ccc2c(c1)CN(C(=O)N1CCN(Cc3ccc4c(c3)OCO4)CC1)CCS2 | 2.7% | 9.7% | 29.6% | 78% |  | 
COc1ccc2c(c1)CN(C(=O)C(=O)O)CCS2 [ALADORIAN SODIUM] | 0.2% | 6% | 5.5% | 6.7% |  | 
COc1ccc2c(c1)CN([P@@](=O)(OC)c1ccccc1)CCS2 |  |  |  |  | 174 nM | 
O=C(O)C(=O)N1CCSc2ccccc2C1 | 1.3% | 7.5% | 3.6% | 4.1% |  | 
C=CC(=O)N1CCSc2ccc(OC)cc2C1 |  |  |  |  | 50 nM | 
COC(=O)C(=O)N1CCSc2ccc(OC)cc2C1 | 0.2% | 7.3% | 2.7% | 13.6% |  | 
c1ccc2c(c1)CNCCS2 |  |  |  |  | 100 nM | 
COc1ccc2c(c1)CN(C(=O)c1ccc(N=[N+]=[N-])cc1O)CCS2 | 1.3% | 3.6% | 4.1% | 14% |  | 
COc1ccc2c(c1)CN(C(=O)C(=O)O)CCS2 [ALADORIAN] |  |  |  |  |  | Non-Toxic
